# Tests used:
# Assay in all cases: Growth inhibition activity (MIC, agar) against aerobic bacteria
# Assay type in all cases: cell-based
# [1] = test system: Bacillus subtilis (NBRC3134); conditions: Bacillus subtilis; strain NBRC3134; Mueller Hinton Agar, 37 degrees C. overnight; read-out: MIC (Minimum Inhibitory Concentration)
# Method: (§1) In the present invention, the growth inhibition activity, which is an indicator of the antimicrobial activity, is evaluated by determining the Minimum Inhibitory Concentration (MIC) with an agar or liquid medium.
# (§2) Furthermore, the following bacteria were also used as other general aerobic bacteria: • Escherichia coli: Escherichia coli (NBRC3972) • Pseudomonas aeruginosa: Pseudomonas aeruginosa (NBRC13275) • Bacteria in intestines: Proteus vulgaris (NBRC3167) • Pneumobacillus: Klebsiella pneumoniae (NBRC13277) • Bacillus subtilis: Bacillus subtilis (NBRC3134)
# (§3) The test strains were cultured in the liquid medium which the Bioresource center recommends, and then the test strains were subcultured to a Mueller Hinton Broth (Difco) at 30 degrees C. The grown bacteria were diluted to 10^6 CFU/ml with saline to adjust the bacteria fluids for inoculation.
# (§4) Furthermore, in order to examine the growth inhibition activities against the bacteria by the above cooling agents, the concentration of the cooling agents: (3S)-CA20, (3R)-CA20, CA1, CA5, CA15, CA55 or CA MGH was diluted with ethanol to the required level of concentration for the determining the Minimum Inhibitory Concentration to produce the sample liquids.
# (§5) Next, 100 μL of each sample liquid was added to 10 mL of a Mueller Hinton Agar (Difco) agar medium solution in a soluble state, and each agar medium solution was poured into a petri dish and solidified to prepare test plates having several concentrations of the sample liquids (several concentrations of the above cooling agents). Subsequently, 5 μL of the above bacteria fluids for inoculation were stamped on the test plates, and then the test plates were cultured at 37 degrees C. overnight.
# (§6) In this way, the growth inhibition activities by (3S)-CA20, (3R)-CA20, CA1, CA5, CA15, CA55, CA MGH were examined. The minimum concentration of the cooling agent in which the growth of bacteria could not be confirmed was considered as the MIC (Minimum Inhibitory Concentration).
# (§7) The minimum concentration of the cooling agent in which the grown strain could not be confirmed was considered as the MIC (Minimum Inhibitory Concentration).
# [2] = test system: Escherichia coli (NBRC3972); conditions: Escherichia coli; strain NBRC3972; Mueller Hinton Agar, 37 degrees C. overnight; read-out: MIC (Minimum Inhibitory Concentration)
# Method: as §1, §2, §3, §4, §5, §6, §7
# [3] = test system: Proteus vulgaris (NBRC3167); conditions: Proteus vulgaris; strain NBRC3167; Mueller Hinton Agar, 37 degrees C. overnight; read-out: MIC (Minimum Inhibitory Concentration)
# Method: as §1, §2, §3, §4, §5, §6, §7
# [4] = test system: Pseudomonas aeruginosa (NBRC13275); conditions: Pseudomonas aeruginosa; strain NBRC13275; Mueller Hinton Agar, 37 degrees C. overnight; read-out: MIC (Minimum Inhibitory Concentration)
# Method: as §1, §2, §3, §4, §5, §6, §7
# [5] = test system: Klebsiella pneumoniae (NBRC13277); conditions: Klebsiella pneumoniae; strain NBRC13277; Mueller Hinton Agar, 37 degrees C. overnight; read-out: MIC (Minimum Inhibitory Concentration)
# Method: as §1, §2, §3, §4, §5, §6, §7
# [6] = test system: Corynebacterium minutissimum (NBRC15361T); conditions: Corynebacterium minutissimum; strain NBRC15361T; Mueller Hinton Agar, 37 degrees C. overnight; read-out: MIC (Minimum Inhibitory Concentration)
# Method: as §1
# (§8) In the test for the growth inhibition activity, the following strains were used as skin-related bacteria: • Staphylococcus epidermidis: Staphylococcus epidermidis (JCM2414T and ATCC 12228) • Staphylococcus aureus: Staphylococcus aureus (NBRC12732 and JCM2151) • Skin indigenous bacteria which introduce a superficial infection: Corynebacterium minutissimum (NBRC15361T) • Armpit odor-causing bacteria: Corynebacterium xerosis (JCM1324)
# as §3, §4, §5, §6, §7
# [7] = test system: Staphylococcus aureus (JCM2151); conditions: Staphylococcus aureus; strain JCM2151; Mueller Hinton Agar, 37 degrees C. overnight; read-out: MIC (Minimum Inhibitory Concentration)
# Method: as §1, §8, §3, §4, §5, §6, §7
# [8] = test system: Staphylococcus aureus (NBRC12732); conditions: Staphylococcus aureus; strain NBRC12732; Mueller Hinton Agar, 37 degrees C. overnight; read-out: MIC (Minimum Inhibitory Concentration)
# Method: as §1, §8, §3, §4, §5, §6, §7
# [9] = test system: Staphylococcus epidermidis (JCM2414T); conditions: Staphylococcus epidermidis, strain JCM2414T; Mueller Hinton Agar, 37 degrees C. overnight; read-out: MIC (Minimum Inhibitory Concentration)
# Method: as §1, §8, §3, §4, §5, §6, §7
# [10] = test system: Corynebacterium xerosis (JCM1324); conditions: Corynebacterium xerosis; strain JCM1324; Mueller Hinton Agar, 37 degrees C. overnight; read-out: MIC (Minimum Inhibitory Concentration)
# Method: as §1, §8, §3, §4, §5, §6, §7
# [11] = test system: Staphylococcus epidermidis (ATCC 12228); conditions: strain ATCC12228, Mueller Hinton Agar, 37 degrees C. overnight, read-out: MIC (Minimum Inhibitory Concentration)
# Method: as §1, §8, §3, §4, §5, §6, §7
SMILES,MIC [1],MIC [2],MIC [3],MIC [4],MIC [5],MIC [6],MIC [7],MIC [8],MIC [9],MIC [10],MIC [11]
"CC(O)CC(=O)OC1CC(C)CCC1C(C)C [(3S)-CA20, menthyl 3-hydroxybutanoate]",200 mg/L,> 1600 mg/L,> 1600 mg/L,> 1600 mg/L,200 mg/L,200 mg/L,100 mg/L,200 mg/L,100 mg/L,100 mg/L,
"CC1CCC(C(C)C)C(OCC(C)(O)CO)C1 (stereo not drawn) [CA1, 2-methyl-3-(menthoxy)propane-1,2-diol]",400 mg/L,> 1600 mg/L,> 1600 mg/L,> 1600 mg/L,400 mg/L,400 mg/L,400 mg/L,800 mg/L,400 mg/L,800 mg/L,800 mg/L
"CC1CCC(C(C)C)C(OC(=O)C=O)C1 (stereo not drawn) [CA MGH, menthyl glyoxylate]",50 mg/L,800 mg/L,100 mg/L,800 mg/L,50 mg/L,100 mg/L,100 mg/L,100 mg/L,50 mg/L,100 mg/L,50 mg/L
"CC1CCC(C(C)C)C(O)C1 (stereo not drawn) [l-menthol, menthol, reference compound]",1600 mg/L,1600 mg/L,1600 mg/L,> 1600 mg/L,1600 mg/L,1600 mg/L,1600 mg/L,1600 mg/L,1600 mg/L,1600 mg/L,1600 mg/L

# Other lines, results leading:
MIC [1],MIC [2],MIC [3],MIC [4],MIC [5],MIC [6],MIC [7],MIC [8],MIC [9],MIC [10],MIC [11],SMILES
800 mg/L,> 1600 mg/L,1600 mg/L,> 1600 mg/L,400 mg/L,800 mg/L,400 mg/L,800 mg/L,800 mg/L,800 mg/L,800 mg/L,"CC1CCC(C(C)C)C(OCCO)C1 (stereo not drawn) [CA5, 2-(menthoxy)ethanol]"
800 mg/L,> 1600 mg/L,1600 mg/L,> 1600 mg/L,800 mg/L,800 mg/L,800 mg/L,1600 mg/L,800 mg/L,800 mg/L,1600 mg/L,"CC1CCC(C(C)C)C(OCC(O)CO)C1 (stereo not drawn) [CA10, 3-menthoxypropane-1,2-diol, reference compound]"
400 mg/L,> 1600 mg/L,> 1600 mg/L,> 1600 mg/L,200 mg/L,200 mg/L,200 mg/L,400 mg/L,400 mg/L,400 mg/L,400 mg/L,"CC1CCC(C(C)C)C(OCCCO)C1 (stereo not drawn) [CA15, 3-menthoxypropan-1-ol]"
800 mg/L,> 1600 mg/L,> 1600 mg/L,> 1600 mg/L,> 1600 mg/L,> 1600 mg/L,> 1600 mg/L,> 1600 mg/L,> 1600 mg/L,> 1600 mg/L,> 1600 mg/L,"CC1CCC(C(C)(C)O)C(O)C1 (stereo not drawn) [CA38, p-menthane-3,8-diol, reference compound]"
800 mg/L,> 1600 mg/L,> 1600 mg/L,> 1600 mg/L,800 mg/L,800 mg/L,800 mg/L,800 mg/L,800 mg/L,800 mg/L,800 mg/L,"CC1CCC(C(C)C)C(OCCOCCO)C1 (stereo not drawn) [CA55, 2-(2-menthoxyethoxy)ethanol]"
> 1600 mg/L,> 1600 mg/L,> 1600 mg/L,> 1600 mg/L,> 1600 mg/L,> 1600 mg/L,> 1600 mg/L,> 1600 mg/L,> 1600 mg/L,> 1600 mg/L,,"CNC(=O)C(C)(C(C)C)C(C)C [WS-23, N-methyl-2-isopropyl-2,3-dimethylbutanamide, reference compound]"

# From US20140163099A1, “ANTIMICROBIAL COMPOSITION” (TAKASAGO INTERNATIONAL CORPORATION, priority 2011, published 2014)
